In test [1] the test system is T47D (PI3Kα-H1047R) cell line. Briefly: HTRF phospho-AKT(S473) cell assay in T47D cells. Type of test: cell-based, human. The following applies: Homo sapiens; HTRF phospho-AKT(S473), T47D (PI3Kα-H1047R) cells, 2 hours compound incubation. Put shortly: (§1)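 T47D: RPMI + 10% FBS + 0.2 units/mL insulin, top 5 μM. SKBR3: McCoy's 5A + 10% FBS, top 10 μM, 70 ng/ml PDGF-BB last 15 min. Both: 12-pt 1:3, 2 h, 37° C, max 0.5% DMSO; HTRF pAKT(S473); IC50.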
A general note: In TR-FRET formats the signal depends on donor and acceptor labels being close together.

Test [2] deals with SKBR3 (PI3Kα-Wild Type) cell line. Briefly: HTRF phospho-AKT(S473) cell assay in SKBR3 cells. It counts as cell-based, human. The settings on record: Homo sapiens, SK-BR-3; HTRF phospho-AKT(S473), SKBR3 (PI3Kα-Wild Type) cells, 2 hours compound incubation, PDGF-BB stimulated. Put shortly:
as §1

The term IC50 denotes the point on the concentration scale where inhibition reaches its midpoint. Read a high IC50 as a need for much substance.

In the case of `Cc1cc([C@@H](C)Nc2ccc(Cl)nc2C(=O)NS(C)(=O)=O)c2nc(N3C[C@H]4C[C@@H]3CN4c3nc(C)ncc3F)n(C)c(=O)c2c1` [Compound 605, 6-chloro-3-(((R)-1-(2-((1R,4R)-5-(5-fluoro-2-methylpyrimidin-4-yl)-2,5-diazabicyclo [2.2.1]heptan-2-yl)-3,6-dimethyl-4-oxo-3,4-dihydroquinazolin-8-yl)ethyl)amino)-N-(methylsulfonyl) picolinamide], the IC50 in test [1] is 0.25 to 0.5 µM; in test [2] it was ≥ 5 µM.
On to `Cc1cc([C@@H](C)Nc2ccc(Cl)nc2C(=O)NS(C)(=O)=O)c2nc(N3C[C@@H]4[C@H](C3)[C@H]4c3cnc(C)nc3)n(C3CC3)c(=O)c2c1` [Compound 606, 6-chloro-3-(((R)-1-(3-cyclopropyl-6-methyl-2-((1R,5S,6S)-6-(2-methylpyrimidin-5-yl)-3-azabicyclo[3.1.0]hexan-3-yl)-4-oxo-3,4-dihydroquinazolin-8-yl)ethyl)amino)-N-(methylsulfonyl) picolinamide], for which the IC50 in test [1] is 0.25 to 0.5 µM; in test [2], ≥ 5 µM.
The corresponding values for `Cc1cc([C@@H](C)Nc2ccc(Cl)nc2C(=O)NS(C)(=O)=O)c2nc(N3CCC(c4cnc(C)nc4)CC3)n(C3CC3)c(=O)c2c1` [Compound 607, (R)-6-chloro-3-((1-(3-cyclopropyl-6-methyl-2-(4-(2-methylpyrimidin-5-yl)piperidin-1-yl)-4-oxo-3,4-dihydroquinazolin-8-yl)ethyl)amino)-N-(methylsulfonyl) picolinamide] are < 0.25 µM and 1 to 5 µM.
The corresponding values for `Cc1cc([C@@H](C)Nc2ccc(Cl)nc2C(=O)NS(C)(=O)=O)c2nc(N3C[C@@H]4C[C@H]3CN4c3cnc(C)c(F)c3)n(C)c(=O)c2c1` [Compound 608, 6-chloro-3-(((R)-1-(2-((1S,4S)-5-(5-fluoro-6-methylpyridin-3-yl)-2,5-diazabicyclo [2.2.1]heptan-2-yl)-3,6-dimethyl-4-oxo-3,4-dihydroquinazolin-8-yl)ethyl)amino)-N-(methylsulfonyl) picolinamide] are 0.5 to 1 µM and ≥ 5 µM.
`Cc1ccc(N2C[C@H]3C[C@@H]2CN3c2nc3c([C@@H](C)Nc4ccc(Cl)nc4C(=O)NS(C)(=O)=O)cc(C)cc3c(=O)n2C)nc1` [Compound 609, 6-chloro-3-(((R)-1-(3,6-dimethyl-2-((1R,4R)-5-(5-methylpyridin-2-yl)-2,5-diazabicyclo [2.2.1]heptan-2-yl)-4-oxo-3,4-dihydroquinazolin-8-yl)ethyl)amino)-N-(methylsulfonyl) picolinamide]: the concentration for half-maximal inhibition (IC50) is 0.5 to 1 µM in test [1] and ≥ 5 µM in test [2].
The corresponding values for `COc1ccc([C@H]2[C@@H]3CN(c4nc5c([C@@H](C)Nc6ccc(Cl)nc6C(=O)NS(C)(=O)=O)cc(C)cc5c(=O)n4C)C[C@@H]32)cn1` [Compound 610, 6-chloro-3-(((R)-1-(2-((1R,5S,6S)-6-(6-methoxypyridin-3-yl)-3-azabicyclo[3.1.0]hexan-3-yl)-3,6-dimethyl-4-oxo-3,4-dihydroquinazolin-8-yl)ethyl)amino)-N-(methylsulfonyl) picolinamide] are < 0.25 µM and ≥ 5 µM.
As to `COc1cc(O[C@H]2CCN(c3nc4c([C@@H](C)Nc5ccc(Cl)nc5C(=O)NS(C)(=O)=O)cc(C)cc4c(=O)n3C)C2)c(F)cn1` [Compound 611, 6-chloro-3-(((R)-1-(2-((S)-3-((5-fluoro-2-methoxypyridin-4-yl)oxy)pyrrolidin-1-yl)-3,6-dimethyl-4-oxo-3,4-dihydroquinazolin-8-yl)ethyl)amino)-N-(methylsulfonyl) picolinamide], the IC50 in test [1] is 0.25 to 0.5 µM; in test [2] it was ≥ 5 µM.
Consider `Cc1cc([C@@H](C)Nc2ccc(Cl)nc2C(=O)NS(C)(=O)=O)c2nc(N3Cc4cnc(C)nc4C3)n(C)c(=O)c2c1` [Compound 612, (R)-6-chloro-3-((1-(3,6-dimethyl-2-(2-methyl-5,7-dihydro-6H-pyrrolo[3,4-d]pyrimidin-6-yl)-4-oxo-3,4-dihydroquinazolin-8-yl)ethyl)amino)-N-(methylsulfonyl) picolinamide], for which the results for the half-inhibitory concentration (IC50) in test [1] and in test [2] were 0.25 to 0.5 µM and 1 to 5 µM, respectively.
With `Cc1cnc(O[C@@H]2CCN(c3nc4c([C@@H](C)Nc5ccc(Cl)nc5C(=O)NS(C)(=O)=O)cc(C)cc4c(=O)n3C)C2)nc1` [Compound 613, 6-chloro-3-(((R)-1-(3,6-dimethyl-2-((R)-3-((5-methylpyrimidin-2-yl)oxy)pyrrolidin-1-yl)-4-oxo-3,4-dihydroquinazolin-8-yl)ethyl)amino)-N-(methylsulfonyl) picolinamide], the half-inhibitory concentration (IC50) in test [1] was < 0.25 µM; in test [2], 1 to 5 µM.
The corresponding values for `CCn1c(N2CCC(c3nc(C)n(C)n3)CC2)nc2c([C@@H](C)Nc3ccc(Cl)nc3C(=O)NS(C)(=O)=O)cc(C)cc2c1=O` [Compound 616, (R)-6-chloro-3-((1-(2-(4-(1,5-dimethyl-1H-1,2,4-triazol-3-yl)piperidin-1-yl)-3-ethyl-6-methyl-4-oxo-3,4-dihydroquinazolin-8-yl)ethyl)amino)-N-(methylsulfonyl) picolinamide] are < 0.25 µM and ≥ 5 µM.
The corresponding values for `Cc1cc([C@@H](C)Nc2ccc(Cl)nc2C(=O)NS(C)(=O)=O)c2nc(N3CCN(c4cc(C)nc(C)n4)CC3)n(C)c(=O)c2c1` [Compound 617, (R)-6-chloro-3-((1-(2-(4-(2,6-dimethylpyrimidin-4-yl)piperazin-1-yl)-3,6-dimethyl-4-oxo-3,4-dihydroquinazolin-8-yl)ethyl)amino)-N-(methylsulfonyl) picolinamide] are 0.25 to 0.5 µM and ≥ 5 µM.
The corresponding values for `Cc1cc([C@@H](C)Nc2ccc(Cl)nc2C(=O)NS(C)(=O)=O)c2nc(N3C[C@@H]4[C@H](C3)[C@H]4c3cc4cccnn4n3)n(C)c(=O)c2c1` [Compound 620, 6-chloro-3-(((R)-1-(3,6-dimethyl-4-oxo-2-((1R,5S,6R)-6-(pyrazolo[1,5-b]pyridazin-2-yl)-3-azabicyclo[3.1.0]hexan-3-yl)-3,4-dihydroquinazolin-8-yl)ethyl)amino)-N-(methylsulfonyl) picolinamide] are < 0.25 µM and 1 to 5 µM.
Regarding `CCn1c(N2C[C@@H]3[C@H](C2)[C@H]3c2cn(C)nn2)nc2c([C@@H](C)Nc3ccc(Cl)nc3C(=O)NS(C)(=O)=O)cc(C)cc2c1=O` [Compound 622, 6-chloro-3-(((R)-1-(3-ethyl-6-methyl-2-((1R,5S,6R)-6-(1-methyl-1H-1,2,3-triazol-4-yl)-3-azabicyclo[3.1.0]hexan-3-yl)-4-oxo-3,4-dihydroquinazolin-8-yl)ethyl)amino)-N-(methylsulfonyl) picolinamide], the IC50 in test [1] was < 0.25 µM; in test [2], 1 to 5 µM.
The like results for `Cc1cc([C@@H](C)Nc2ccc(Cl)nc2C(=O)NS(C)(=O)=O)c2nc(N3C[C@@H]4C[C@H]3CN4c3ccc(F)cn3)n(C)c(=O)c2c1` [Compound 623, 6-chloro-3-(((R)-1-(2-((1S,4S)-5-(5-fluoropyridin-2-yl)-2,5-diazabicyclo [2.2.1]heptan-2-yl)-3,6-dimethyl-4-oxo-3,4-dihydroquinazolin-8-yl)ethyl)amino)-N-(methylsulfonyl) picolinamide] were, in that order, 0.25 to 0.5 µM and ≥ 5 µM.
For the compound `Cc1cc([C@@H](C)Nc2ccc(Cl)nc2C(=O)NS(C)(=O)=O)c2nc(N3C[C@H]4C[C@@H]3CN4c3nccnc3C)n(C)c(=O)c2c1` [Compound 624, 6-chloro-3-(((R)-1-(3,6-dimethyl-2-((1R,4R)-5-(3-methylpyrazin-2-yl)-2,5-diazabicyclo [2.2.1]heptan-2-yl)-4-oxo-3,4-dihydroquinazolin-8-yl)ethyl)amino)-N-(methylsulfonyl) picolinamide], the half-maximal inhibitory concentration (IC50) was 0.25 to 0.5 µM in test [1] and ≥ 5 µM in test [2].
As for `Cc1cc([C@@H](C)Nc2ccc(Cl)nc2C(=O)NS(C)(=O)=O)c2nc(N3CCC(n4nncc4C)CC3)n(C)c(=O)c2c1` [Compound 626, (R)-6-chloro-3-((1-(3,6-dimethyl-2-(4-(5-methyl-1H-1,2,3-triazol-1-yl)piperidin-1-yl)-4-oxo-3,4-dihydroquinazolin-8-yl)ethyl)amino)-N-(methylsulfonyl) picolinamide], the results for the IC50 in test [1] and in test [2] were 0.25 to 0.5 µM and 1 to 5 µM, respectively.
The like results for `Cc1cc([C@@H](C)Nc2ccc(Cl)nc2C(=O)NS(C)(=O)=O)c2nc(N3CCc4nn(C(F)F)cc4C3)n(C)c(=O)c2c1` [Compound 627, (R)-6-chloro-3-((1-(2-(2-(difluoromethyl)-2,4,6,7-tetrahydro-5H-pyrazolo[4,3-c]pyridin-5-yl)-3,6-dimethyl-4-oxo-3,4-dihydroquinazolin-8-yl)ethyl)amino)-N-(methylsulfonyl) picolinamide] were, in that order, < 0.25 µM and 1 to 5 µM.
The corresponding values for `Cc1cc([C@@H](C)Nc2ccc(Cl)nc2C(=O)NS(=O)(=O)C2COC2)c2nc(N3Cc4cn(-c5ccccc5C)nc4C3)n(C)c(=O)c2c1` [Compound 628, (R)-6-chloro-3-((1-(3,6-dimethyl-4-oxo-2-(2-(o-tolyl)-2,6-dihydropyrrolo[3,4-c]pyrazol-5(4H)-yl)-3,4-dihydroquinazolin-8-yl)ethyl)amino)-N-(oxetan-3-ylsulfonyl)picolinamide] are 0.25 to 0.5 µM and ≥ 5 µM.
In the case of `Cc1cc([C@@H](C)Nc2ccc(Cl)nc2C(=O)NS(C)(=O)=O)c2nc(N3CCC(c4nnc(C5CCC5)o4)CC3)n(C)c(=O)c2c1` [Compound 629, (R)-6-chloro-3-((1-(2-(4-(5-cyclobutyl-1,3,4-oxadiazol-2-yl)piperidin-1-yl)-3,6-dimethyl-4-oxo-3,4-dihydroquinazolin-8-yl)ethyl)amino)-N-(methylsulfonyl) picolinamide], the IC50 in test [1] was < 0.25 µM; in test [2], 1 to 5 µM.

Source of the values: patent publication US12281122B1, “PI3K inhibitors” (Cogent Biosciences, Inc., priority 2023, dated 2025).
